Reference: US10981864B2, “Crystalline modifications of N-(4,5-bismethanesulfonyl-2-methylbenzoyl)guanidine hydrochloride and N-(4,5-bismethanesulfonyl-2-methylbenzoyl)guanidine salts” (MERCK PATENT GMBH, priority 2016, dated 2021)
Where “and” joins values, the source holds several entries; their conditions need not be identical. Equal entries are not always repeated. Structures can show the parent of a compound that is named as a salt.

Tests used:
Format in all cases: physicochemical
[1] = Mini-dissolution in FeSSIF medium (pH 5.0), dissolved quantity by HPLC; conditions: for Dissolution levels in FeSSIF pH 5.0: FeSSIF pH 5.0, 37° C.; for Dissolution behavior compared to prior-art form HCl-H1: biorelevant media, Fed-state conditions (FeSSIF, pH 5.0)
Method: Approximately 10-12 mg of N-(4,5-bis-methanesulfonyl-2-methyl-benzoyl)guanidine form HCl-H1 (HCl salt hydrate form, prior-art), HCl salt anhydrous forms (forms HCl-A1, HCl-A2, HCl-A3), and novel salt forms [phosphate salt (form Phosphate-NF1), maleate salt (form Maleate-NF2), oxalate salt (form Oxalate-NF1), citrate salt (form citrate-NF1), sulfate salt (form Sulfate-NF3), succinate salt (form Succinate-NF1), malonate salt (form Malonate-NF1), besylate salt (form Besylate-NF1), p-tosylate salt (form Tosylate-NF1), malate salt (form Malate-NF1), fumarate salt (form Fumarate-NF1), tartrate salt (form Tartrate-NF1)] are weighed into 4 mL glass vials, and dispersed in 4 mL FeSSIF medium (pH 5.0, Acetate buffer capacity increased by factor 4 to ensure stable pH conditions over course of dissolution experiments).
All dispersions are agitated at 37° C. for up to 2 hours. At defined time intervals (5 min, 15 min, 60 min, 120 min), 0.4 mL sample aliquots of homogeneous dispersions are withdrawn by a syringe, and filtrated via syringe filter adapters (PTFE, 0.2 μm). Clear filtrates are diluted (1:20) with respective Acetate blank buffer, and diluted samples analyzed by HPLC for dissolved quantities of N-(4,5-bis-methanesulfonyl-2-methyl-benzoyl)-guanidine.

[2] = Water Vapour Sorption isotherm (DVS), hygroscopicity acc. to Ph. Eur.; conditions: for Water uptake levels (Water Vapour Sorption): 25° C.
Method: As used herein, unless stated otherwise, Water Vapour Sorption isotherm measurements are carried out on a DVS-1 or a DVS-Intrinsic system from SMS.
A second endothermic event occurs at >180° C., which is due to melting of the dehydrated form. This is followed by immediate re-crystallisation (exothermic event), and subsequent melting of the re-crystallized phase at >240° C. […] DSC scan of form HCl-H1 was acquired on a Mettler-Toledo DSC 821 with a heating rate of 5 K/min, using nitrogen purge gas at 50 mL/min. […] Form HCl-H1 can be classified as non-hygroscopic acc. to Ph. Eur. criteria (section 5.11.). […] Water Vapour Sorption isotherm was acquired on a DVS-1 system from SMS. • Dissolution level of form HCl-H1 in Fed-State Simulated Intestinal Fluid [FeSSIF, pH 5.0] at 37° C. was determined to be approx. 1.50 mg/mL (after 15 min), approx. 4.16 mg/mL (after 60 min), and approx. 4.54 mg/mL (after 120 min), respectively (see example 17).

[3] = Thermal behaviour (DSC/TGA), thermal stability; conditions: DSC/TGA 5 K/min
Method: As used herein, unless stated otherwise, the DSC measurements are carried out using a Mettler-Toledo DSC 821 with a heating rate of 5 K/min, using nitrogen purge gas at 50 mL/min.
As used herein, unless stated otherwise, the TGA measurements are carried out using a Mettler-Toledo TGA 851 with a heating rate of 5 K/min, using nitrogen purge gas at 50 mL/min.

[4] = relative humidity range 0-90% rh

Compound | Dissolution levels in FeSSIF pH 5.0 ([1]; 5 min) [mg/mL] | Dissolution levels in FeSSIF pH 5.0 ([1]; 15 min) | Dissolution levels in FeSSIF pH 5.0 ([1]; 60 min) | Dissolution levels in FeSSIF pH 5.0 ([1]; 120 min) | Dissolution behavior compared to prior-art form HCl-H1 [1] | Hygroscopicity classification acc. to Ph. Eur. criteria (section 5.11.) [2] | Water uptake levels (Water Vapour Sorption) [2, 4] [wt %] | Water uptake levels (Water Vapour Sorption) ([2]; relative humidity range 0-80% rh) [wt %] | Thermal stability (mp/dec) [3] [°C] | Water uptake levels (Water Vapour Sorption) ([2]; relative humidity range 10-90% rh) | Water uptake levels (Water Vapour Sorption) ([2]; entire relative humidity range 0-98% rh) [wt %]
Cc1cc(S(C)(=O)=O)c(S(C)(=O)=O)cc1C(=O)NC(=N)N (racemic) [Tartrate-NF1, N-(4,5-bis-methanesulfonyl-2-methyl-benzoyl)-guanidine] | 5.165 | 5.17±0.02 mg/mL and 5.165 mg/mL | 5.17±0.02 mg/mL and 5.165 mg/mL | 5.17±0.02 mg/mL | improved dissolution behavior | slightly hygroscopic | ≤ 1.0 | – | – | – | –
Cc1cc(S(C)(=O)=O)c(S(C)(=O)=O)cc1C(=O)NC(=N)N [Besylate-NF1, N-(4,5-bis-methanesulfonyl-2-methyl-benzoyl)-guanidine] | 4.059 | 5.57±0.02 mg/mL and 5.570 mg/mL | 5.57±0.02 mg/mL and 5.570 mg/mL | 3.87±0.02 mg/mL and 3.873 mg/mL | improved dissolution behavior | slightly hygroscopic | – | 1.0 | > 280 | – | –
Cc1cc(S(C)(=O)=O)c(S(C)(=O)=O)cc1C(=O)NC(=N)N [Fumarate-NF1, N-(4,5-bis-methanesulfonyl-2-methyl-benzoyl)-guanidine] | 2.606 | 4.22±0.02 mg/mL and 4.222 mg/mL | 4.34±0.02 mg/mL and 4.337 mg/mL | 4.36±0.02 mg/mL and 4.361 mg/mL | improved dissolution behavior | slightly hygroscopic | – | – | – | – | –
Cc1cc(S(C)(=O)=O)c(S(C)(=O)=O)cc1C(=O)NC(=N)N [HBr-NF1, N-(4,5-bis-methanesulfonyl-2-methyl-benzoyl)-guanidine] | – | – | – | – | – | non-hygroscopic | – | – | – | 4.3-4.4 wt % | –
Cc1cc(S(C)(=O)=O)c(S(C)(=O)=O)cc1C(=O)NC(=N)N [HCl-A1, N-(4,5-bis-methanesulfonyl-2-methyl-benzoyl)-guanidine] | 0.541 | 0.87±0.02 mg/mL and 0.866 mg/mL | 2.53±0.02 mg/mL and 2.535 mg/mL | 2.76±0.02 mg/mL and 2.765 mg/mL | – | – | – | – | – | – | –
Cc1cc(S(C)(=O)=O)c(S(C)(=O)=O)cc1C(=O)NC(=N)N.Cl.O [HCl-H1, N-(4,5-bismethanesulfonyl-2-methylbenzoyl)-guanidine hydrochloride hydrate, reference compound] | 0.494 | – | – | – | – | non-hygroscopic | – | – | – | – | ≤ 0.2
Cc1cc(S(C)(=O)=O)c(S(C)(=O)=O)cc1C(=O)NC(=N)N [Malate-NF1, N-(4,5-bis-methanesulfonyl-2-methyl-benzoyl)-guanidine] | 5.510 | 5.51±0.02 mg/mL and 5.510 mg/mL | 5.51±0.02 mg/mL and 5.510 mg/mL | 4.27±0.02 mg/mL and 4.275 mg/mL | improved dissolution behavior | hygroscopic | 7.5 | – | – | – | –
Cc1cc(S(C)(=O)=O)c(S(C)(=O)=O)cc1C(=O)NC(=N)N [Maleate-NF1, N-(4,5-bis-methanesulfonyl-2-methyl-benzoyl)-guanidine] | – | – | – | – | – | – | – | – | > 170 | – | –
